Test results taken from ChEMBL document CHEMBL1142531, “Discovery and biological profile of 4-(1-aryltriazol-4-yl)-tetrahydropyridines as an orally active new class of metabotropic glutamate receptor 1 antagonist” (Bioorg Med Chem, 2008).
≈ marks a conversion by molar mass, not a printed value. Calls of active or inactive are those of the source. No cut-off for these calls is given here.

Legend:
[1] = target: Metabotropic glutamate receptor 1 (Homo sapiens, UniProt Q13255); assay: Antagonist activity at human mGluR1 expressed in CHO cells assessed as calcium flux by FLIPR assay; assay type: functional, cell-based
Sequence of Metabotropic glutamate receptor 1 (Homo sapiens, UniProt Q13255) (Q13255 whole entry): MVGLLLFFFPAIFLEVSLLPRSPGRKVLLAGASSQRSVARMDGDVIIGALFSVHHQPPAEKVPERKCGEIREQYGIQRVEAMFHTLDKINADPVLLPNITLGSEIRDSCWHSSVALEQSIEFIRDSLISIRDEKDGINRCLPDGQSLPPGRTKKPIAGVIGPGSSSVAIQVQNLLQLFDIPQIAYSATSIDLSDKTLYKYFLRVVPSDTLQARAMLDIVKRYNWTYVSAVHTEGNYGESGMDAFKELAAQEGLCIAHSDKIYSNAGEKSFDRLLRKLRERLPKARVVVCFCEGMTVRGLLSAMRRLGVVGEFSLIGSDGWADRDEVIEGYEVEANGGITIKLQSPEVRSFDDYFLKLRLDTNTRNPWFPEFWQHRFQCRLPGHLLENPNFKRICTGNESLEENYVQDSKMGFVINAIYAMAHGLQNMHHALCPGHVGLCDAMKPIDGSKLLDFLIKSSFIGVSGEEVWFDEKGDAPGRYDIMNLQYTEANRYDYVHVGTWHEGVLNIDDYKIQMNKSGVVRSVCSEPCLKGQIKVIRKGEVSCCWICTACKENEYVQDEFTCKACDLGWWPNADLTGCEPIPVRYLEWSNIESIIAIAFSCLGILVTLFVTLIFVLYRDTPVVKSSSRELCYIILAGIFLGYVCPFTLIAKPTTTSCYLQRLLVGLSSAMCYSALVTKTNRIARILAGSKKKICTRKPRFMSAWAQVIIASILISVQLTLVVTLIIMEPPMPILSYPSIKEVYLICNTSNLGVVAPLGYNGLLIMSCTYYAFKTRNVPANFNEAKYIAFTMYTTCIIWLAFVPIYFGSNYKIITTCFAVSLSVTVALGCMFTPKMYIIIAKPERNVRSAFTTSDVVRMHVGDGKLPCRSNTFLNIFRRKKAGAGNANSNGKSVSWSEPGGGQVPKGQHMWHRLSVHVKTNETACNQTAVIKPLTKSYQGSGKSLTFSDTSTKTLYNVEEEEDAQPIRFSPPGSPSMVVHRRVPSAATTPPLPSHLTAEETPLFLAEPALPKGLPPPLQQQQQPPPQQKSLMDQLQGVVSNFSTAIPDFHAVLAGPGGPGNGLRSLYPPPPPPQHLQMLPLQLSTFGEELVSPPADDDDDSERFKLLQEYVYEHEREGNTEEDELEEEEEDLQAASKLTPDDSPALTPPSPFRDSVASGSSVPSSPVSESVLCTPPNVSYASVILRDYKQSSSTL

[2] = Octanol-water partition coefficient, log D at pH 7.4 by shake flask method; assay type: physicochemical
[3] = target: Metabotropic glutamate receptor 1 (Mus musculus, UniProt P97772); assay: Antagonist activity at mouse mGluR1 expressed in CHO cells assessed as calcium flux by FLIPR assay; assay type: functional, cell-based
Sequence of Metabotropic glutamate receptor 1 (Mus musculus, UniProt P97772) (P97772 whole entry): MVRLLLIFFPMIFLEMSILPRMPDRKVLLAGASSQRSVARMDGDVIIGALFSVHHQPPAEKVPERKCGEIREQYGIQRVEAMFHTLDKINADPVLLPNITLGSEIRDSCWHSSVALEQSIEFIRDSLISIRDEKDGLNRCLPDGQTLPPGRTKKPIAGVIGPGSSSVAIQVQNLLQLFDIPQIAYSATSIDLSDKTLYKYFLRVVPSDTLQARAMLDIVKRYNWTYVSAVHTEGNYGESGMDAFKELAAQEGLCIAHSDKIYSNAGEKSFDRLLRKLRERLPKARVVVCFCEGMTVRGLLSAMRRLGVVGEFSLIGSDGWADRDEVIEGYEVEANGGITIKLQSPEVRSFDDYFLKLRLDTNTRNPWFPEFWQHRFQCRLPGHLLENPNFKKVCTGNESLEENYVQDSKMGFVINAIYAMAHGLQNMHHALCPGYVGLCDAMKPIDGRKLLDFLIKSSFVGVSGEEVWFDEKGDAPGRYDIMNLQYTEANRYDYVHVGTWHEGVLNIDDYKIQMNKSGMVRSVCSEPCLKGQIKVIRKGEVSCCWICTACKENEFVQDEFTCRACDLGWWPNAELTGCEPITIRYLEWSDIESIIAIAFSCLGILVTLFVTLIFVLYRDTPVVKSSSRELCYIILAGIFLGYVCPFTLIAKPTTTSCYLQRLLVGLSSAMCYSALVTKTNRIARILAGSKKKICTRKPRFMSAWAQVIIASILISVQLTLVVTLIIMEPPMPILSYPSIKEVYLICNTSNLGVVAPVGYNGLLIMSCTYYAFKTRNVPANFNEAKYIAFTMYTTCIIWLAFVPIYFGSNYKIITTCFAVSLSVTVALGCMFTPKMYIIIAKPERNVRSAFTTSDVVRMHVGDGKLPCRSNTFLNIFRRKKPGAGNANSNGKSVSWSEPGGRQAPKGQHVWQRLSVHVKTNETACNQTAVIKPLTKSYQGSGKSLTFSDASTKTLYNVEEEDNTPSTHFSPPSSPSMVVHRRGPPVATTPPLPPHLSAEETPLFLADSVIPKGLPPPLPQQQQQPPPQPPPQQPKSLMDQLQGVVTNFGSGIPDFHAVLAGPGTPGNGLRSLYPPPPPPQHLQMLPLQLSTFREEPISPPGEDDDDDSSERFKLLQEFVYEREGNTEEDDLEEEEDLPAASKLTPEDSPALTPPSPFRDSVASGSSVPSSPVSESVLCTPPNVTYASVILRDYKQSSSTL

[4] = target: Metabotropic glutamate receptor 5 (Homo sapiens, UniProt P41594); assay: Antagonist activity at human mGluR5 expressed in CHO cells assessed as calcium flux by FLIPR assay; assay type: functional, cell-based
Sequence of Metabotropic glutamate receptor 5 (P41594 whole entry): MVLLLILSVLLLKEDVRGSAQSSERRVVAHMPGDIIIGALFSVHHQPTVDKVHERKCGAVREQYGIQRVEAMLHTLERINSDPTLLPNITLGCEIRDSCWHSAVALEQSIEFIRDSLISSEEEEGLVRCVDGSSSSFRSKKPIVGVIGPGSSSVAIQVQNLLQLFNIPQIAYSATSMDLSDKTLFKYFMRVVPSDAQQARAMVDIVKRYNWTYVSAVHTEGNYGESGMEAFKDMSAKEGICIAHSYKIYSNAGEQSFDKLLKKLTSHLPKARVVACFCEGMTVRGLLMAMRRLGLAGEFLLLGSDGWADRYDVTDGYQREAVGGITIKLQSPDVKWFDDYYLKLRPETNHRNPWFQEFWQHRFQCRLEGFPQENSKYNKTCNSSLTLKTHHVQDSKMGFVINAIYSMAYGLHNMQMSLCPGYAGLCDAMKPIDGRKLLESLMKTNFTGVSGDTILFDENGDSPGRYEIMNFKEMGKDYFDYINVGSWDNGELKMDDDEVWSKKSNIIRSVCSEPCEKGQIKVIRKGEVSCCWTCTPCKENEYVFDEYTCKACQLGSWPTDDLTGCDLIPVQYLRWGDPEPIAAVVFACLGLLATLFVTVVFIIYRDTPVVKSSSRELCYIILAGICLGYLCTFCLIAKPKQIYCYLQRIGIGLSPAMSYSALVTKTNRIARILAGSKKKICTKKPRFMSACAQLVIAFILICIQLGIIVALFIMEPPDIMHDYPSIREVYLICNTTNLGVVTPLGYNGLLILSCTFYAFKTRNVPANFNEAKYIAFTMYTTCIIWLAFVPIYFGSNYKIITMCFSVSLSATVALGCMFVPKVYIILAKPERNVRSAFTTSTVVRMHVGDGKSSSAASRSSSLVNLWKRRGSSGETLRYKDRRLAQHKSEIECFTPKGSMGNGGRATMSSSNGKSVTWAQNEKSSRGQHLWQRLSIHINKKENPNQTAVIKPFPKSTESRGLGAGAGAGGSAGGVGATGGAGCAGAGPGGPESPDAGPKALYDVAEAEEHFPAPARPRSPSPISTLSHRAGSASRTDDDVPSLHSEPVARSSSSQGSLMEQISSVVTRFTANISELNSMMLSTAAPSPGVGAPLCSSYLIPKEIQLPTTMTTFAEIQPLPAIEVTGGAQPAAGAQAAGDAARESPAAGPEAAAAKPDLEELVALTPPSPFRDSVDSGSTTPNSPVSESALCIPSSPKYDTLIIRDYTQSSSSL

[5] = test system: Mus musculus; assay: Inhibition of (S)-3,5-[…]-induced face washing behavior in mouse administered 30 mins before (S)-3,5-DHPG measured after 5 mins; assay type: functional, organism-based
[6] = Solubility in water by ultra performance liquid chromatography; assay type: physicochemical
[7] = Metabolic stability in rat liver microsomes at 1 uM after 30 mins; assay type: ADME, Microsome; conditions: read-out: Stability
[8] = Metabolic stability in human liver microsomes at 1 uM after 30 mins; assay type: ADME, Microsome; conditions: read-out: Stability
[9] = test system: Mus musculus; assay: Inhibition of (S)-3,5-[…]-induced face washing behavior in mouse at 3 to 10 mg/kg, ip administered 30 mins before (S)-3,5-DHPG measured after 5 mins; assay type: functional, organism-based
[10] = Metabolic stability in mouse liver microsomes at 1 uM after 30 mins; assay type: ADME, Microsome; conditions: read-out: Stability
[11] = Inhibition of kainate receptor
[12] = target: Metabotropic glutamate receptor 6 (Homo sapiens) (UniProt O15303); assay: Activity at human mGluR6 expressed in CHO cells at 10 uM by [35S]GTPgammaS binding assay; assay type: functional, cell-based
[13] = Oral bioavailability in rat at 3 mg/kg; assay type: ADME, organism-based; conditions: in vivo
[14] = test system: Mus musculus; assay: Inhibition of (S)-3,5-[…]-induced face washing behavior in mouse at 10 to 30 mg/kg, po administered 30 mins before (S)-3,5-DHPG measured after 5 mins; assay type: functional, organism-based
[15] = Half life in rat at 1 mg/kg, iv; assay type: ADME, organism-based; set-up: dose 1 mg/kg, route intravenous; conditions: in vivo
[16] = test system: Mus musculus; assay: Brain concentration in mouse at 10 mg/kg, po after 30 mins; assay type: ADME, organism-based; set-up: dose 10 mg/kg, route oral; conditions: in vivo, 0.5 h
[17] = target: Metabotropic glutamate receptor 8 (Homo sapiens) (UniProt O00222); assay: Activity at human mGluR8 expressed in CHO-K1 cells at 10 uM by [35S]GTPgammaS binding assay; assay type: functional, cell-based
[18] = target: Metabotropic glutamate receptor 4 (Homo sapiens) (UniProt Q14833); assay: Activity at human mGluR4 expressed in CHO cells at 10 uM by [35S]GTPgammaS binding assay; assay type: functional, cell-based
Sequence of Metabotropic glutamate receptor 4 (Homo sapiens) (Q14833 whole entry): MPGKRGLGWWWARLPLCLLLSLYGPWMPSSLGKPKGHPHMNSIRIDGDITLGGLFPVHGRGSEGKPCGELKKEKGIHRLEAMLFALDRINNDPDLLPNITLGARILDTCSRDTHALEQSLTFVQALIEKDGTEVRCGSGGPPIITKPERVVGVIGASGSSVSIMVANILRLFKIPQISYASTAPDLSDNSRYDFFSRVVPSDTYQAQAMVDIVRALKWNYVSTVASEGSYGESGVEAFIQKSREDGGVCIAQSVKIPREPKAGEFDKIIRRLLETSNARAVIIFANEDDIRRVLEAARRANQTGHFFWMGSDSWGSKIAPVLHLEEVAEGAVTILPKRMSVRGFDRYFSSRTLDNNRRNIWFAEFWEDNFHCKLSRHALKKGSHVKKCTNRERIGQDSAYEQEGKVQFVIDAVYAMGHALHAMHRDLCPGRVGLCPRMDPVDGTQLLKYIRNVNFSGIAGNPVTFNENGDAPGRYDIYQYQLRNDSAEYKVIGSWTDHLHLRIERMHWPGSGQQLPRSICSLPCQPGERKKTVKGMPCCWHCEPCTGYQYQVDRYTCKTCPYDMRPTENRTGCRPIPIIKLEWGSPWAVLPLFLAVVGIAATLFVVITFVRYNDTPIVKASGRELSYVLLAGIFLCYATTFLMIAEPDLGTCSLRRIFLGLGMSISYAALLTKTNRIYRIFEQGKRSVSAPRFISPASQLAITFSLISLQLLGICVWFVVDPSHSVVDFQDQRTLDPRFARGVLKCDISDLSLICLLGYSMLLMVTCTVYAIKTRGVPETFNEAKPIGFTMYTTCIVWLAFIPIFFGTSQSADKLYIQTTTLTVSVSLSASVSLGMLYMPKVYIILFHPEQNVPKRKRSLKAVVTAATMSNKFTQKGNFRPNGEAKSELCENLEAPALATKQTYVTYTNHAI

[19] = test system: Mus musculus; assay: Inhibition of (S)-3,5-[…]-induced face washing behavior in mouse at 10 to 30 mg/kg, ip administered 30 mins before (S)-3,5-DHPG measured after 5 mins; assay type: functional, organism-based
[20] = Plasma concentration in mouse at 10 mg/kg, po after 30 mins; assay type: ADME, organism-based; set-up: dose 10 mg/kg, route oral
[21] = target: Metabotropic glutamate receptor 7 (Homo sapiens) (UniProt Q14831); assay: Activity at human mGluR7 expressed in CHO cells at 10 uM by [35S]GTPgammaS binding assay; assay type: functional, cell-based
[22] = Inhibition of AMPA receptor
[23] = Total plasma clearance in rat at 1 mg/kg, iv; assay type: ADME, organism-based; set-up: dose 1 mg/kg, route intravenous
[24] = Inhibition of NMDA receptor
[25] = target: Metabotropic glutamate receptor 2 (Homo sapiens) (UniProt Q14416); assay: Activity at human mGluR2 expressed in CHO cells at 10 uM by [35S]GTPgammaS binding assay; assay type: functional, cell-based

Row | IC50 [1] [nM] | logD [2] | IC50 [3] [nM] | IC50 [4] [nM] | SMILES | other results
1 | 11 | > 4 | 58 | 880 | Cc1ccccc1-n1cc(C2=CCN(C(=O)OC(C)(C)C)CC2)nn1 | 
2 | 120 |  | 160 | > 10000 | CC(C)(C)CC(=O)N1CC=C(c2cn(-c3ccccc3F)nn2)CC1 | 
3 | 16 | > 4 | 31 | 1100 | CC(C)(C)OC(=O)N1CC=C(c2cn(-c3ccc(F)cc3)nn2)CC1 | 
4 |  |  |  |  | N[C@H](C(=O)O)c1ccc(C(=O)O)cc1 | Activity [5]: Active
5 | 6.3 | > 4 | 16 | 1000 | CC(C)(C)OC(=O)N1CC=C(c2cn(-c3ccccc3F)nn2)CC1 | 
6 |  |  |  |  | NC1(C(=O)O)CCc2cc(C(=O)O)ccc21 (racemic) | Activity [5]: Active
7 | 590 |  | 1600 | 4000 | COc1ccccc1-n1cc(C2=CCN(C(=O)OC(C)(C)C)CC2)nn1 | 
8 | 55 | 3 | 180 | 8300 | CC(C)(C)OC(=O)N1CC=C(c2cn(-c3cccnc3)nn2)CC1 | 
9 | 49 | > 4 | 150 | 8700 | CC(C)(C)OC(=O)N1CC=C(c2cn(-c3ccccn3)nn2)CC1 | 
10 | 9.8 | > 4 | 24 | 820 | CC(C)(C)OC(=O)N1CC=C(c2cn(-c3ccccc3)nn2)CC1 | solubility [6]: 2.4 µM (≈ 0.783 µg/mL); remaining at 0.5 h, 1 µM [7]: 16%; remaining at 0.5 h, 1 µM [8]: 57%
11 | 7.2 | 2.8 | 3.3 | 40 | Cc1c(C2=CCN(C(=O)OC(C)C)CC2)nnn1-c1cccnc1F | 
12 | 7 | 2.9 | 1.5 | 170 | Cc1c(C2=CCN(C(=O)OC(C)(C)C)CC2)nnn1-c1cccnc1F | Activity [9]: Active; solubility [6]: 155 µM (≈ 55.7 µg/mL); remaining at 0.5 h, 1 µM [7]: 70%; remaining at 0.5 h, 1 µM [10]: 2%; remaining at 0.5 h, 1 µM [8]: 90%
13 |  | 2.1 | 3.1 | 6200 | Cc1c(C2=CCN(C(=O)N(C)C(C)C)CC2)nnn1-c1cccnc1F | IC50 [11]: > 10000 nM; Activity [12]: inactive; bioavailability [13]: 18%; Activity [14]: Active; half-life [15]: 12 min; Drug uptake [16]: 0.17 nmol/g; Activity [17]: inactive; solubility [6]: > 170 µM; Activity [18]: inactive; remaining at 0.5 h, 1 µM [7]: 61%; Activity [19]: Active; concentration at 0.5 h [20]: 210 nM; Activity [21]: inactive; IC50 [22]: > 10000 nM; remaining at 0.5 h, 1 µM [10]: 27%; remaining at 0.5 h, 1 µM [8]: 85%; clearance [23]: 57 mL/min/kg; IC50 [24]: > 10000 nM; Activity [25]: inactive
14 | 220 |  | 1000 | > 10000 | CC(C)(C)OC(=O)N1CC=C(c2cn(-c3ccncc3)nn2)CC1 | 
15 | 39 | 2.8 | 180 | 3900 | CC(C)OC(=O)N1CC=C(c2cn(-c3cccnc3F)nn2)CC1 | 
16 | 2.6 | 3.1 | 12 | 4300 | CC(C)(C)OC(=O)N1CC=C(c2cn(-c3cccnc3F)nn2)CC1 | 
17 | 57 | 3.2 | 290 | 8600 | CC(C)(C)NC(=O)N1CC=C(c2cn(-c3ccccc3F)nn2)CC1 | 
18 | 18 | > 4 | 39 | 1100 | CC(C)(C)OC(=O)N1CC=C(c2cn(-c3cccc(F)c3)nn2)CC1 | 
